Experimental data taken from patent publication US20140213513A1 (Sanofi, priority 2012, published 2014).
pEC50: −log10 of the molar value. Converted amounts (≈) assume the structure as drawn. Read-outs that look alike come from different tables or passages of the source. *1 amine or outer side, *2 acyl side, *3 side chain or, on linkers, in order; H or OH if unused. Where a SMILES comes first, the peptide text is derived from it. Side-chain parts run from the residue outwards. [ ]: non-standard residue; d: D form. The star is where a group is joined. γGlu = O=C(O)[C@H](CCC(=O)[*:2])N[*:1]; Palmitoyl = CCCCCCCCCCCCCCCC(=O)*; Aib = CC(C)(N)C(=O)O

Experiments:
[1] = target: T1, human GLP-1 receptor (hGLP-1 R) (Homo sapiens, UniProt P43220); test: cAMP response of HEK-293 cells stably expressing human GLP-1 receptor (HTRF); assay type: cell-based; details: Table 7; cAMP formation
T1 construct: expressed in transfected cells
T1 sequence (P43220 24-463): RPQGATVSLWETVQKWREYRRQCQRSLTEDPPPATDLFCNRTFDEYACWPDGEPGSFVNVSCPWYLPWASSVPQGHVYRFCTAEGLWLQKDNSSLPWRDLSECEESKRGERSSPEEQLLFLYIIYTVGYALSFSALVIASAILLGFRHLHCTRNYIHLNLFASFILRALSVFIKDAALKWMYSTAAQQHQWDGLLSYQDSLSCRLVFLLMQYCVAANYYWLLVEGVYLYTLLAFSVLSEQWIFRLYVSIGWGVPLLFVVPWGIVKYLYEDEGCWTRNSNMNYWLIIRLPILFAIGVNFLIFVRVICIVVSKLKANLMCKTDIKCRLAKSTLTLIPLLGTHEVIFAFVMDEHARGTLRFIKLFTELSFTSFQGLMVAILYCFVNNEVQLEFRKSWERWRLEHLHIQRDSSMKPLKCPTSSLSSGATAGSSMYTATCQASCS
Summary of the method: (§1)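 Intracellular cAMP is quantified by HTRF following a 30-minute room-temperature incubation of cell suspensions (400000 cells/ml) with test compound in HBSS, 20 mM HEPES, 0.1% BSA and 2 mM IBMX.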

[2] = Solubility testing in buffer (HPLC-UV of supernatant); assay type: physicochemical
[3] = Pharmacokinetic testing in mice (plasma LC/MS); assay type: in vivo; details: mouse, sc, 1 mg/kg s.c.
Description: Mice were dosed 1 mg/kg subcutaneously (s.c.).
Pharmacokinetic profiles were determined as described in Methods.

[4] = target: T2, human glucagon receptor (hGLUC R) (Homo sapiens, UniProt P47871); test: cAMP response of HEK-293 cells stably expressing human glucagon receptor (HTRF); assay type: cell-based; details: Table 7; cAMP formation
T2 construct: expressed in transfected cells
T2 sequence (P47871 26-477): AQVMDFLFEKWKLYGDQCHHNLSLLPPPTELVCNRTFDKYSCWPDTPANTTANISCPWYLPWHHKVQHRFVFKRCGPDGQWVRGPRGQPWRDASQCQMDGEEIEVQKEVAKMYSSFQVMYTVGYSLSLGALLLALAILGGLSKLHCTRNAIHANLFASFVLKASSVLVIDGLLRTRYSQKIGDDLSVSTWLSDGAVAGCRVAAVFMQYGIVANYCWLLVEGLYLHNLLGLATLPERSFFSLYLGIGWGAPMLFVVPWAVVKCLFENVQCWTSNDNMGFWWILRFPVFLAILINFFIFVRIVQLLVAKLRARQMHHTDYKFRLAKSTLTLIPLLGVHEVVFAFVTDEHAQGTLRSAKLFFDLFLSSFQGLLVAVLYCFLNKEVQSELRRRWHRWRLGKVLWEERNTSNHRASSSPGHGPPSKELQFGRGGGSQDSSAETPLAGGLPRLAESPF
Summary of the method: as §1

[5] = target: T3, human GIP receptor (hGIP R) (Homo sapiens, UniProt P48546); test: cAMP response of HEK-293 cells stably expressing human GIP receptor (HTRF); assay type: cell-based; details: Table 7; cAMP formation
T3 construct: expressed in transfected cells
T3 sequence (P48546 22-466): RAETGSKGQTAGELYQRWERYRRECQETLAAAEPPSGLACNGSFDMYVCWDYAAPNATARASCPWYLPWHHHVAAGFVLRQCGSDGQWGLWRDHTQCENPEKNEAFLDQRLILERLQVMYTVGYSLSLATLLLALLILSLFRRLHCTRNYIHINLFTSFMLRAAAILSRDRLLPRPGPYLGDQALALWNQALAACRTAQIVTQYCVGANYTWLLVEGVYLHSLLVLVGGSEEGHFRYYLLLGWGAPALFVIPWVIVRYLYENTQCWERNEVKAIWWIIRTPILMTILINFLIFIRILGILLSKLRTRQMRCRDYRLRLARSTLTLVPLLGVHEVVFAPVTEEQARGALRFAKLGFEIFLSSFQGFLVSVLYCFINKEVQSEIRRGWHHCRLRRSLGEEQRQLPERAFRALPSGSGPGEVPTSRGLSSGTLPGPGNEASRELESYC
Summary of the method: as §1

[6] = target: human GLP-1 receptor (human) (UniProt P43220); test: cell-based or functional assay
human GLP-1 receptor (human), sequence (P43220 24-463): as the sequence (P43220 24-463) above

[7] = target: T4, human GIP receptor (human) (UniProt P48546); test: cell-based or functional assay
T4 sequence (looked up): T3 sequence (P48546 22-466)

[8] = pH 4.5, target concentration 1.0 mg/mL, read-out: Solubility (pH 4.5)
[9] = pH 7.4, target concentration 1.0 mg/mL, read-out: Solubility (pH 7.4)

With `CCCCCCCCCCCCCCCC(=O)N[C@@H](CCC(=O)NCCCC[C@H](NC(=O)[C@H](CCC(N)=O)NC(=O)[C@@H](NC(=O)[C@H](CO)NC(=O)[C@H](CC(C)C)NC(=O)[C@H](CC(=O)O)NC(=O)[C@H](CO)NC(=O)[C@@H](NC(=O)[C@H](Cc1ccccc1)NC(=O)[C@@H](NC(=O)CNC(=O)[C@H](CCC(N)=O)NC(=O)C(C)(C)NC(=O)[C@@H](N)Cc1ccc(O)cc1)[C@@H](C)O)[C@@H](C)O)[C@@H](C)CC)C(=O)N[C@@H](CCC(=O)O)C(=O)N[C@@H](CCCCN)C(=O)N[C@@H](CCCNC(=N)N)C(=O)N[C@@H](C)C(=O)N[C@@H](C)C(=O)NC(C)(C)C(=O)N[C@@H](CCC(=O)O)C(=O)N[C@@H](Cc1ccccc1)C(=O)N[C@H](C(=O)N[C@@H](CCC(=O)O)C(=O)N[C@@H](Cc1c[nH]c2ccccc12)C(=O)N[C@@H](CC(C)C)C(=O)N[C@@H](CCCCN)C(=O)N[C@@H](C)C(=O)N[C@H](C)C(=O)NCC(=O)N1CCC[C@H]1C(=O)N[C@@H](CO)C(=O)N[C@@H](CO)C(=O)NCC(=O)N[C@@H](C)C(=O)N1CCC[C@H]1C(=O)N1CCC[C@H]1C(=O)N1CCC[C@H]1C(=O)N[C@@H](CO)C(N)=O)[C@@H](C)CC)C(=O)O` [SEQ ID NO: 14, Y-Aib-Q-G-T-F-T-S-D-L-S-I-Q-K(yE-x53)-E-K-R-A-A-Aib-E-F-I-E-W-L-K-A-dAla-G-P-S-S-G-A-P-P-P-S-N H2] the pEC50 [1] was 11.19, the solubility at 2 h [2, 8] was 1020 µg/mL (≈ 227 µM) and the solubility at 2 h [2, 9] was greater than 1000 µg/mL. It also gave a Cmax [3] of 5570 ng/mL, a half-life [3] of 2.2 h and a pEC50 [4] of 10.21. The pEC50 [5] was 11.21.

For `CCCCCCCCCCCCCCCC(=O)N[C@@H](CCC(=O)NCCCC[C@H](NC(=O)[C@H](CCC(N)=O)NC(=O)[C@@H](NC(=O)[C@H](CO)NC(=O)[C@H](CC(C)C)NC(=O)[C@H](CC(=O)O)NC(=O)[C@H](CO)NC(=O)[C@@H](NC(=O)[C@H](Cc1ccccc1)NC(=O)[C@@H](NC(=O)CNC(=O)[C@H](CCC(N)=O)NC(=O)C(C)(C)NC(=O)[C@@H](N)Cc1ccc(O)cc1)[C@@H](C)O)[C@@H](C)O)[C@@H](C)CC)C(=O)N[C@@H](CC(=O)O)C(=O)N[C@@H](CCCCN)C(=O)N[C@@H](CCCNC(=N)N)C(=O)N[C@@H](CCCNC(=N)N)C(=O)N[C@@H](C)C(=O)N[C@@H](CCC(N)=O)C(=O)N[C@@H](CC(=O)O)C(=O)N[C@@H](Cc1ccccc1)C(=O)N[C@H](C(=O)N[C@@H](CCC(=O)O)C(=O)N[C@@H](Cc1c[nH]c2ccccc12)C(=O)N[C@@H](CC(C)C)C(=O)N[C@@H](CCCCN)C(=O)N[C@@H](C)C(=O)NCC(=O)NCC(=O)N1CCC[C@H]1C(=O)N[C@@H](CO)C(=O)N[C@@H](CO)C(=O)NCC(=O)N[C@@H](C)C(=O)N1CCC[C@H]1C(=O)N1CCC[C@H]1C(=O)N1CCC[C@H]1C(=O)N[C@@H](CO)C(N)=O)[C@@H](C)CC)C(=O)O` [SEQ ID NO: 53, Y-Aib-Q-G-T-F-T-S-D-L-S-I-Q-K(yE-x53)-DKRRAQDFIEWLKAGGPSSGAPPPS-NH2] (H-Y[Aib]QGTFTSDLSIQK([γGlu-Palmitoyl])DKRRAQDFIEWLKAGGPSSGAPPPS-NH2), the pEC50 [1] was 10.87, the solubility at 2 h [2, 8] was 932 µg/mL (≈ 203 µM) and the solubility at 2 h [2, 9] was 958 µg/mL (≈ 209 µM). For the same compound, the pEC50 [4] was 11.10 and the pEC50 [5] was 10.03.

With Tyr(1)Ile(12)-exendin-4 (peptide) the EC50 hGLP-1 R [6] was 0.0013 nM and the EC50 hGIP R [7] was 0.0939 nM.
